Laboratory results published in patent publication US11846639B2, “Ligand discovery for T cell receptors” (priority 2014, dated 2023).

Tested on: AGA1 T cell receptor
Assay: Selection of yeast-displayed HLA-B5703 peptide library with AGA1 TCR, deep sequencing read counts
Assay type: binding
Settings: for number of times the peptide was represented, Rd1: after round 1 of selection with AGA1 TCR; for number of times the peptide was represented, Rd2: after round 2 of selection with AGA1 TCR; for number of times the peptide was represented, Rd3: after round 3 of selection with AGA1 TCR; for number of times the peptide was represented, Rd4: after round 4 of selection with AGA1 TCR; for number of times the peptide was represented, Naïve: naïve library before selection
Experimental: Selection of pMHC libraries To maximize sensitivity of selections, all described selection steps were conducted at 4° using cold buffers, and refrigerated centrifuges. All spins were 5,000×g for 1 minute. Before each round of selection, a small sample of yeast (˜1×10^6 cells) were stained with an anti-epitope tag antibody. For the first round of selection, ˜2×10^9 yeast were washed once with PBS+0.5% BSA and 1 mM EDTA (PBE buffer) and then cleared with unloaded Streptavidin Microbeads (250 uL beads in 5 mL PBE) (Miltenyi, 130-048-101) to eliminate any nonspecifically binding yeast clones by incubating 1 hr at 4° with gentle rotation. The yeast were then spun down, resuspended in 5 mL PBE without a wash, and passed through a Miltenyi LS column. […] TCR-binding yeast were then selected via an LS column, washed in SDCAA, and then re-cultured in SDCAA, pH 4.5 at 30° C. overnight. Yeast were re-induced upon reaching OD>2. For each round of selection, at least 10-fold more yeast was used than recovered from the previous round to ensure complete coverage of all selected yeast. Second and third rounds of selection were conducted in the same manner, but with reduced volumes (50 µL of beads in 500 LL PBE). Progress of selections was monitored by counting of cells selected to TCR-bound streptavidin beads as compared to streptavidin beads alone via an Accuri C6 flow cytometer. […] For the final round of selection (conducted when the yeast count enriched by TCR loaded beads was higher than background, usually after 3 rounds), the libraries were stained with 500 nM streptavidin-TCR tetramer as described above, washed 3× with PBE, then incubated with 50 uL anti-Alexa647 Microbeads (Miltenyi, 130-091-395) in 450 µL PBE for 20 minutes. The yeast were washed a final time and passed through a Miltenyi LS column. Enriched yeast were then plated on SDCAA plates for characterization of individual colonies. Individual yeast clones were then screened for tetramer staining as described above. Plasmids containing the selected pMHC were isolated from positive clones via yeast miniprep (Zymoprep II kit, Zymo Research) and sequenced (Sequetech).
Deep sequencing of selection libraries. Pooled plasmids from 5×10^7 yeast from each round of selection were isolated via yeast miniprep (Zymoprep II kit, Zymo Research) and used as PCR template to prepare Illumina samples. Amplicon libraries were designed as follows: (Illumina P5-Truseq read 1-(N8)-Barcode-pMHC-(N8)-Truseq read 2-IlluminaP7). N8 was added immediately after both sequencing primers to generate diversity for low complexity sequencing reads. The adapter and barcode sequences were appended via nested 25-round cycles of PCR of the purified plasmids using Phusion polymerase (NEB). Primers were proximal to the peptide on the pMHC, annealing to the Aga2p leader sequence (5′ end) and MHC β1 domain (3′ end) to ensure high quality sequence reads of the peptide with double coverage. Final PCR products were run on a high percentage agarose gel and purified via gel extraction. PCR products were then quantitated via nanodrop, normalized for each barcoded round of selection to be equally represented, doped with 5-50% PhiX DNA to ensure sufficient sequence diversity for high quality sequence reads, and run on an Illumina MiSeq with 2×150 nt Paired End reads. The initial deep sequencing run, for the 2B4-I-E^k selections, was conducted with 1×150 nt Single End reads. When the sequencing data was analyzed as described below, we saw no significant difference in data quality between single and paired-end reads (as judged by comparing the results for 226/5cc7 when analyzed as single reads vs. paired-end reads). Deep sequencing was conducted at the Stanford Stem Cell Institute Genome Center.
The library was expressed and screened as described above in Example 1, with the AGA1 T cell receptor.
The top 20 peptides after round 3 has the sequences shown below in Table 3. […]

Sequence	number of times the peptide was represented, Rd1	number of times the peptide was represented, Rd2	number of times the peptide was represented, Rd3	number of times the peptide was represented, Rd4	number of times the peptide was represented, Naïve
ASFRPELAEFW [HLA-B5703 library peptide selected with AGA1 TCR]	11	14699	24829	42208	1
ASFSPELRMAW [HLA-B5703 library peptide selected with AGA1 TCR]	10	9925	47218	31919	0
GSLAPEIRMYW [HLA-B5703 library peptide selected with AGA1 TCR]	11	3108	23178	10848	9
GTIRPEIREMW [HLA-B5703 library peptide selected with AGA1 TCR]	37	36754	226381	113394	5
KSCTPEVREYF [HLA-B5703 library peptide selected with AGA1 TCR]	17	15114	94896	49796	0
KSFVPELKPAF [HLA-B5703 library peptide selected with AGA1 TCR]	36	37327	157329	120443	2
KSLAPEVRDLF [HLA-B5703 library peptide selected with AGA1 TCR]	8	6502	34865	22054	0
KSLTPEVRGYW [HLA-B5703 library peptide selected with AGA1 TCR]	15	13273	30634	38231	1
LSLRPEIPLFF [HLA-B5703 library peptide selected with AGA1 TCR]	74	63749	183724	189891	5
NSFRPEVAMKY [HLA-B5703 library peptide selected with AGA1 TCR]	7	6013	31331	19786	6
NSLKPEIPDYF [HLA-B5703 library peptide selected with AGA1 TCR]	47	48656	268475	171826	11
NSVKPEIRPVW [HLA-B5703 library peptide selected with AGA1 TCR]	10	10086	33679	32818	6
RSFVPEIGMGF [HLA-B5703 library peptide selected with AGA1 TCR]	18	20370	22329	65722	8
RSFYPEIREYW [HLA-B5703 library peptide selected with AGA1 TCR]	19	14782	119258	48648	7
SALRPEIRLLW [HLA-B5703 library peptide selected with AGA1 TCR]	50	28840	21235	70740	1
SSFSPELRMRW [HLA-B5703 library peptide selected with AGA1 TCR]	10	14335	98338	48729	3
SSGVPEVRMMF [HLA-B5703 library peptide selected with AGA1 TCR]	38	40422	215079	125041	6
WTYRPEVRGVW [HLA-B5703 library peptide selected with AGA1 TCR]	21	30482	128915	91015	4
YSFKPELKEIF [HLA-B5703 library peptide selected with AGA1 TCR]	5	5648	28641	20312	0
